# Where two headings read alike, the source gives them in different places.
# Legend:
# Type in all cases: in vivo
# [1] = system: chickweed (Stellaria media); test: Test C postemergence; settings: Stellaria media, post-emergence; for pest or weed control at 62 g/ha: 62 g ai/ha; for pest or weed control at 62 g/ha / pest or weed control at 125 g/ha: scale 0 to 100 (0 no effect, 100 complete control), read-out: Chickweed plant response rating; for pest or weed control at 125 g/ha: 125 g ai/ha
# Procedure, shortened: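 Rating scale 0–100: 0 means no effect, 100 complete control; taken visually 12 to 14 days post-treatment versus controls. Pre- and postemergence greenhouse applications, postemergence at 1- to 4-leaf stage, non-phytotoxic solvent with surfactant as carrier.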
# [2] = system: giant foxtail (Setaria faberii); test: Test C pre/postemergence; settings: Setaria faberi; for pest or weed control at 125 g/ha: 125 g ai/ha; for pest or weed control at 500 g/ha: 500 g ai/ha; for pest or weed control at 62 g/ha: 62 g ai/ha; for pest or weed control at 250 g/ha: 250 g ai/ha; for pest or weed control at 16 g/ha: 16 g ai/ha; for pest or weed control at 31 g/ha: 31 g ai/ha
# From the text: (§1) Seeds or nutlets of plant species selected from bermudagrass (Cynodon dactylon), Surinam grass (Brachiaria decumbens), cocklebur (Xanthium strumarium), corn (Zea mays), crabgrass (Digitaria sanguinalis), woolly cupgrass (Eriochloa villosa), giant foxtail (Setaria faberii), goosegrass (Eleusine indica), johnsongrass (Sorghum halepense), kochia (Kochia scoparia), lambsquarters (Chenopodium album), morningglory (Ipomoea coccinea), eastern black nightshade (Solanum ptycanthum), yellow nutsedge (Cyperus esculentus), pigweed (Amaranthus retroflexus), common ragweed (Ambrosia elatior), soybean (Glycine max), common (oilseed) sunflower (Helianthus annuus), and velvetleaf (Abutilon theophrasti) were planted and treated preemergence with test chemicals formulated in a non-phytotoxic solvent mixture which included a surfactant.
# (§2) At the same time, plants selected from these crop and weed species and also winter barley (Hordeum vulgare), blackgrass (Alopecurus myosuroides), canarygrass (Phalaris minor), chickweed (Stellaria media), downy brome (Bromus tectorum), green foxtail (Setaria viridis), Italian ryegrass (Lolium multiflorum), wheat (Triticum aestivum), wild oat (Avena fatua) and windgrass (Apera spica-venti) were treated with postemergence applications of some of the test chemicals formulated in the same manner. Plants ranged in height from 2 to 18 cm (1- to 4-leaf stage) for postemergence treatments. Plant species in the flooded paddy test consisted of rice (Oryza sativa), umbrella sedge (Cyperus difformis), duck salad (Heteranthera limosa) and barnyardgrass (Echinochloa crus-galli) grown to the 2-leaf stage for testing. Treated plants and controls were maintained in a greenhouse for 12 to 14 days, after which time all species were compared to controls and visually evaluated. Plant response ratings, summarized in Table C, are based on a scale of 0 to 100 where 0 is no effect and 100 is complete control. A dash (-) response means no test result.
# [3] = system: Surinam grass (Brachiaria decumbens); test: Test C pre/postemergence; settings: Urochloa decumbens; for pest or weed control at 125 g/ha: 125 g ai/ha; for pest or weed control at 500 g/ha: 500 g ai/ha; for pest or weed control at 62 g/ha: 62 g ai/ha; for pest or weed control at 250 g/ha: 250 g ai/ha; for pest or weed control at 16 g/ha: 16 g ai/ha; for pest or weed control at 31 g/ha: 31 g ai/ha
# From the text: as §1, §2
# [4] = system: crabgrass (Digitaria sanguinalis); test: Test C pre/postemergence; settings: Digitaria sanguinalis; for pest or weed control at 62 g/ha: 62 g ai/ha; for pest or weed control at 125 g/ha: 125 g ai/ha; for pest or weed control at 250 g/ha: 250 g ai/ha; for pest or weed control at 500 g/ha: 500 g ai/ha; for pest or weed control at 16 g/ha: 16 g ai/ha; for pest or weed control at 31 g/ha: 31 g ai/ha
# From the text: as §1, §2
# [5] = system: yellow nutsedge (Cyperus esculentus); test: Test C pre/postemergence; settings: Cyperus; for pest or weed control at 62 g/ha: 62 g ai/ha; for pest or weed control at 125 g/ha: 125 g ai/ha; for pest or weed control at 250 g/ha: 250 g ai/ha; for pest or weed control at 500 g/ha: 500 g ai/ha; for pest or weed control at 16 g/ha: 16 g ai/ha; for pest or weed control at 31 g/ha: 31 g ai/ha
# From the text: as §1, §2
# [6] = post-emergence, Postemergence, scale 0 to 100 (0 no effect, 100 complete control), read-out: Foxtail, Giant plant response rating
# [7] = post-emergence, Postemergence, scale 0 to 100, read-out: Plant response rating, Foxtail, Giant
# [8] = pre-emergence, Preemergence, scale 0 to 100, 0 no effect, 100 complete control, read-out: Plant response rating, Foxtail, Giant
# [9] = pre-emergence, Preemergence, scale 0 to 100, read-out: Plant response rating, Foxtail, Giant
# [10] = post-emergence, Postemergence, scale 0 to 100 (0 no effect, 100 complete control), read-out: Surinam Grass plant response rating
# [11] = post-emergence, Postemergence, scale 0 to 100, read-out: Plant response rating, Surinam Grass
# [12] = pre-emergence, Preemergence, scale 0 to 100, read-out: Plant response rating, Surinam Grass
# [13] = post-emergence, Postemergence, scale 0 to 100 (0 no effect, 100 complete control), read-out: Crabgrass plant response rating
# [14] = post-emergence, Postemergence, scale 0 to 100, read-out: Plant response rating, Crabgrass
# [15] = pre-emergence, Preemergence, scale 0 to 100, 0 no effect, 100 complete control, read-out: Plant response rating, Crabgrass
# [16] = pre-emergence, Preemergence, scale 0 to 100, read-out: Plant response rating, Crabgrass
# [17] = post-emergence, Postemergence, scale 0 to 100 (0 no effect, 100 complete control), read-out: Nutsedge, Yellow plant response rating
# [18] = post-emergence, Postemergence, scale 0 to 100, read-out: Plant response rating, Nutsedge, Yellow
# [19] = pre-emergence, Preemergence, scale 0 to 100, 0 no effect, 100 complete control, read-out: Plant response rating, Nutsedge, Yellow
# [20] = pre-emergence, Preemergence, scale 0 to 100, read-out: Plant response rating, Nutsedge, Yellow
# [21] = post-emergence, Postemergence, read-out: Plant response rating (scale of 0 to 100), Foxtail, Giant
# [22] = post-emergence, Postemergence, read-out: Plant response rating (scale of 0 to 100), Surinam Grass
# [23] = pre-emergence, Preemergence, scale 0 to 100, 0 no effect, 100 complete control, read-out: Plant response rating, Surinam Grass
# [24] = post-emergence, Postemergence, read-out: Plant response rating (scale of 0 to 100), Crabgrass
# [25] = post-emergence, Postemergence, read-out: Plant response rating (scale of 0 to 100), Nutsedge, Yellow
smiles,measurement,setting,value
"Nc1nc(C2CC2)nc(C(=O)OCc2ccccc2)c1Br [Compound 22, phenylmethyl 6-amino-5-bromo-2-cyclopropyl-4-pyrimidinecarboxylate]",pest or weed control at 62 g/ha,[1],30%
same,pest or weed control at 125 g/ha,[1],60%
same,pest or weed control at 250 g/ha,"[1]; 250 g ai/ha, scale 0 to 100, read-out: Plant response rating, Chickweed",85%
same,pest or weed control at 500 g/ha,"[1]; 500 g ai/ha, scale 0 to 100, read-out: Plant response rating, Chickweed",90%
same,pest or weed control at 125 g/ha,[2]; [6],45%
same,pest or weed control at 500 g/ha,[2]; [7],60%
same,pest or weed control at 62 g/ha,[2]; [6],40%
same,pest or weed control at 250 g/ha,[2]; [7],50%
same,pest or weed control at 62 g/ha,[2]; [8],10%
same,pest or weed control at 125 g/ha,[2]; [9],15%
same,pest or weed control at 250 g/ha,[2]; [9],20%
same,pest or weed control at 500 g/ha,[2]; [9],60%
same,pest or weed control at 125 g/ha,[3]; [10],60%
same,pest or weed control at 500 g/ha,[3]; [11],85%
same,pest or weed control at 62 g/ha,[3]; [10],55%
same,pest or weed control at 250 g/ha,[3]; [11],85%
same,pest or weed control at 125 g/ha,[3]; [12],90%
same,pest or weed control at 250 g/ha,[3]; [12],100%
same,pest or weed control at 500 g/ha,[3]; [12],100%
same,pest or weed control at 62 g/ha,[4]; [13],50%
same,pest or weed control at 125 g/ha,[4]; [13],55%
same,pest or weed control at 250 g/ha,[4]; [14],85%
same,pest or weed control at 500 g/ha,[4]; [14],85%
same,pest or weed control at 62 g/ha,[4]; [15],90%
same,pest or weed control at 125 g/ha,[4]; [16],95%
same,pest or weed control at 250 g/ha,[4]; [16],95%
same,pest or weed control at 500 g/ha,[4]; [16],100%
same,pest or weed control at 62 g/ha,[5]; [17],0%
same,pest or weed control at 125 g/ha,[5]; [17],0%
same,pest or weed control at 250 g/ha,[5]; [18],0%
same,pest or weed control at 500 g/ha,[5]; [18],0%
same,pest or weed control at 62 g/ha,[5]; [19],0%
same,pest or weed control at 125 g/ha,[5]; [20],0%
same,pest or weed control at 250 g/ha,[5]; [20],95%
same,pest or weed control at 500 g/ha,[5]; [20],95%
COC(=O)c1nc(C2CC2)nc(N)c1F [Compound 25],pest or weed control at 16 g/ha,"[1]; 16 g ai/ha, read-out: Plant response rating (scale of 0 to 100), Chickweed",0%
same,pest or weed control at 62 g/ha,[1],40%
same,pest or weed control at 125 g/ha,[1],85%
same,pest or weed control at 125 g/ha,[2]; [6],30%
same,pest or weed control at 16 g/ha,[2]; [21],0%
same,pest or weed control at 31 g/ha,[2]; [21],0%
same,pest or weed control at 62 g/ha,[2]; [6],5%
same,pest or weed control at 16 g/ha,[2]; [8],0%
same,pest or weed control at 31 g/ha,[2]; [8],0%
same,pest or weed control at 62 g/ha,[2]; [8],0%
same,pest or weed control at 125 g/ha,[2]; [9],0%
same,pest or weed control at 125 g/ha,[3]; [10],5%
same,pest or weed control at 16 g/ha,[3]; [22],0%
same,pest or weed control at 31 g/ha,[3]; [22],0%
same,pest or weed control at 62 g/ha,[3]; [10],0%
same,pest or weed control at 16 g/ha,[3]; [23],0%
same,pest or weed control at 31 g/ha,[3]; [23],0%
same,pest or weed control at 62 g/ha,[3]; [23],0%
same,pest or weed control at 125 g/ha,[3]; [12],40%
same,pest or weed control at 16 g/ha,[4]; [24],0%
same,pest or weed control at 31 g/ha,[4]; [24],0%
same,pest or weed control at 62 g/ha,[4]; [13],30%
same,pest or weed control at 125 g/ha,[4]; [13],50%
same,pest or weed control at 16 g/ha,[4]; [15],0%
same,pest or weed control at 31 g/ha,[4]; [15],0%
same,pest or weed control at 62 g/ha,[4]; [15],0%
same,pest or weed control at 125 g/ha,[4]; [16],0%
same,pest or weed control at 16 g/ha,[5]; [25],0%
same,pest or weed control at 31 g/ha,[5]; [25],0%
same,pest or weed control at 62 g/ha,[5]; [17],0%
same,pest or weed control at 125 g/ha,[5]; [17],0%
same,pest or weed control at 16 g/ha,[5]; [19],0%
same,pest or weed control at 31 g/ha,[5]; [19],0%
same,pest or weed control at 62 g/ha,[5]; [19],0%
same,pest or weed control at 125 g/ha,[5]; [20],0%

# Reference: US8802597B2, “Herbicidal pyrimidines” (E I du Pont de Nemours and Company, priority 2003, dated 2014)
